Test: Stability of tablets / hydrochlorothiazide degradation depending on excipients
Assay type: physicochemical
Source text: Under certain conditions, hydrochlorothiazide can hydrolyze to form, as by-product products, a free amine degradant and formaldehyde (D.S. Desai et al., International Journal of Phaxmaceutics, 107(2), 141-47 (1994)). The selection of excipients can impact the stability of hydrochlorothiazide. […] The aforementioned preferred compositions of the present invention containing irbesartan and hydrochlorothiazide are thus further advantageous since the excipients employed therein minimize or eliminate hydrochlorothiazide degradation.

degradation of hydrochlorothiazide (poloxamer in the composition): increase the degradation | stability of hydrochlorothiazide (pregelatinized starch as binder, compared with povidone): greater stability
SMILES: NS(=O)(=O)c1cc2c(cc1Cl)NCNS2(=O)=O [hydrochlorothiazide]
stability of hydrochlorothiazide (povidone as binder): formation of quantities of the free amine degradant

— patent US6342247B1, “Pharmaceutical compositions containing irbesartan” (Sanofi-Synthelabo, priority 1995, dated 2002)
